Data on 5 compounds can be found in EPA's ToxRefDB 2.

Data set [1] relates to rat. The following applies: Carcinogenicity, fischer, Oral, Feed, dose end: 107 week, group: systemic.
Data set [2] has as its system mouse. The following applies: Combined chronic toxicity/carcinogenicity, cd1, Oral, Feed, dose end: 78 week, group: systemic.
In data set [3] the test system is dog. The settings on record: Chronic toxicity; beagle; Oral; Feed; dose end: 12 month; group: systemic; systemic / clinical chemistry / alkaline phosphatase (alp/alk) / alkaline phosphatase (alp/alk) + systemic / in life observation / body ….
The test system of data set [4] is rat. The settings on record: Combined chronic toxicity/carcinogenicity, sprague dawley, Oral, [Not Specified], dose end: 24 month, group: systemic.
Data set [5] relates to mouse. The following applies: Carcinogenicity, b6c3f1, Oral, Feed, dose end: 112 week, group: systemic.
Data set [6] deals with rabbit. The following applies: Prenatal developmental toxicity study, new zealand white, Oral, Gavage/Intubation, dose end: 19 GD.
For data set [7], the system named is rat. The settings on record: Subchronic inhalation toxicity, sprague dawley, Nose-Only, dose end: 13 week, group: systemic.
The test system of data set [8] is rat. The following applies: Multigenerational reproductive toxicity study, wistar, Oral, Feed, dose end: 2 generation.
Data set [9] deals with rat. The following applies: Subchronic oral toxicity in rodents, long evans, Feed, dose end: 96 day, group: systemic, systemic / in life observation / body weight / body weight gain + systemic / in life observation / food consumption / food efficiency.
Data set [10] deals with mouse. The following applies: Subchronic oral toxicity in rodents, b6c3f1, Feed, dose end: 13 week, group: systemic, systemic / in life observation / mortality / mortality.
For data set [11], the system named is mouse. The following applies: Carcinogenicity; b6c3f1; Oral; Feed; dose end: 103 week; group: systemic; systemic / in life observation / clinical signs / alopecia + systemic / in life observation / clinical signs / aggressive behavior.
In data set [12] the test system is rat. The following applies: Subchronic oral toxicity in rodents, fischer, Feed, dose end: 13 week, group: systemic, systemic / in life observation / body weight / body weight gain.
The subject of data set [13] is rat. The following applies: Subchronic inhalation toxicity, long evans, Whole-Body, dose end: 58 day, group: systemic, systemic / in life observation / clinical signs / abnormal movements.
In data set [14] the test system is mouse. The settings on record: Multigenerational reproductive toxicity study, cd1, Oral, Feed, dose end: 2 generation, group: offspring.
For data set [15], the system named is rat. The following applies: Subchronic oral toxicity in rodents, sprague dawley, Feed, dose end: 13 week, group: systemic, systemic / clinical chemistry / calcium / calcium + systemic / pathology microscopic / liver / accentuated lobular pattern + systemic / ….
Data set [16] concerns rabbit. The following applies: Prenatal developmental toxicity study, new zealand white, Oral, Gavage/Intubation, dose end: 19 GD. The source holds these as a separate data set.
Data set [17] has as its system rat. The following applies: Sub-acute repeat dose toxicity, other, Inhalation, Nose-Only, dose end: 14 day, group: systemic.
Data set [18] concerns rat. The settings on record: Prenatal developmental toxicity study, other, Inhalation, Nose-Only, dose end: 16 GD.
Data set [19] relates to mouse. The settings on record: Prenatal developmental toxicity study, cd1, Oral, Gavage/Intubation, dose end: 15 GD.
Setting [20] is: systemic / in life observation / body weight / body weight.
The mark [21] stands for this setting: systemic / organ weight / liver / relative to body weight.
The mark [22] stands for this setting: systemic / clinical chemistry / cholesterol / cholesterol + systemic / organ weight / liver / absolute + systemic / organ weight / liver / ….
Setting [23] is: systemic / in life observation / body weight / body weight + systemic / in life observation / clinical signs / alopecia.
The mark [24] stands for this setting: group: developmental, systemic / in life observation / body weight / fetal weight.
[25] abbreviates: group: maternal, reproductive / reproductive performance / aborted / aborted + systemic / in life observation / body weight / body weight + systemic / in ….
[26] abbreviates: systemic / in life observation / body weight / body weight + systemic / in life observation / clinical signs / [other] + systemic / in life ….
The mark [27] stands for this setting: group: offspring, systemic / in life observation / body weight / offspring (pup) weight + systemic / organ weight / spleen / absolute + systemic / organ ….
[28] abbreviates: group: parental, systemic / pathology microscopic / stomach / hyperkeratosis + systemic / pathology microscopic / stomach / hyperplasia + systemic / ….
[29] abbreviates: systemic / organ weight / kidney / relative to body weight + systemic / organ weight / liver / relative to body weight + systemic / organ ….
The mark [30] stands for this setting: group: developmental, developmental / developmental malformation / bone / fused + developmental / developmental malformation / kidney / hydronephrosis + ….
Setting [31] is: group: maternal, reproductive / reproductive performance / resorptions / resorptions + systemic / in life observation / body weight / body weight gain + ….
Where [32] appears, read: systemic / clinical chemistry / alanine aminotransferase (alt/sgpt) / alanine aminotransferase (alt/sgpt) + systemic / clinical chemistry / ….
[33] abbreviates: systemic / hematology / leukocyte (wbc) count differential / leukocyte (wbc) + systemic / in life observation / body weight / body weight + ….
Where [34] appears, read: group: developmental, developmental / developmental malformation / bone / incomplete ossification + developmental / developmental malformation / bone / short ….
The mark [35] stands for this setting: group: maternal, reproductive / reproductive performance / resorptions / resorptions + systemic / in life observation / body weight / body weight + systemic….
Where [36] appears, read: group: developmental, developmental / developmental malformation / bone / [other] + developmental / developmental malformation / bone / absent + developmental / ….
[37] abbreviates: group: maternal, reproductive / reproductive performance / postimplantation loss / postimplantation loss + reproductive / reproductive performance / ….

As for `CCCCOCCOCCOCc1cc2c(cc1CCC)OCO2` [Piperonyl butoxide], the LEL in data set [1] (setting [20]) is 250 mg/kg/day; in data set [2] (setting [21]) it was 30 mg/kg/day; in [3], 15.5 mg/kg/day; in [4] (systemic / organ weight / liver / absolute + systemic / organ weight / liver / relative to brain weight + systemic / pathology gross / …), 30 mg/kg/day; in [5] (setting [23]), 155 mg/kg/day. Further, the LOAEL (usually the lowest dose or exposure tested at which an adverse effect was seen) came out at 500 mg/kg/day in data set [1] (setting [20]); 100 mg/kg/day in data set [2] (systemic / organ weight / liver / relative to body weight + systemic / pathology microscopic / liver / hypertrophy); 15.5 mg/kg/day in data set [3]; 100 mg/kg/day in data set [4] (setting [22]); 155 mg/kg/day in data set [5] (setting [20]). The NEL in data set [1] (setting [20]) is under 250 mg/kg/day; in [2] (setting [21]), under 30 mg/kg/day; in [3], 2.9 mg/kg/day; in data set [4] (setting [22]), 15 mg/kg/day; in data set [5] (setting [23]) it was under 155 mg/kg/day. Further, the NOAEL – broadly, the highest dose or exposure tested at which no adverse effect was seen – in [1] (systemic / in life observation / body weight / body weight + systemic / pathology gross / full gross necropsy / lymphoma nos) is 250 mg/kg/day; in [2] (systemic / organ weight / liver / relative to body weight + systemic / pathology microscopic / liver / adenoma) it was 30 mg/kg/day; in data set [3], 2.9 mg/kg/day; in data set [4] (setting [22]), 30 mg/kg/day; in [5] (setting [20]) it was under 155 mg/kg/day.
With `CCCCCCCCn1sccc1=O` [Octhilinone], the LEL in data set [6] (setting [24]) came to 80 mg/kg/day; in data set [6] (setting [25]) it was 80 mg/kg/day; in [7] (setting [26]), 0.73 ppm; in data set [8] (group: offspring, systemic / organ weight / spleen / relative to body weight), 45 mg/kg/day; in data set [8] (setting [28]), 96 mg/kg/day. In addition, the LOAEL was found to be 80 mg/kg/day in data set [6] (setting [24]); 80 mg/kg/day in data set [6] (setting [25]); 0.73 ppm in data set [7] (setting [26]); 111 mg/kg/day in [8] (setting [27]); 96 mg/kg/day in [8] (group: parental, systemic / pathology microscopic / stomach / hyperkeratosis + systemic / pathology microscopic / stomach / hyperplasia). For the same compound, the NEL in data set [6] (setting [24]) amounted to 20 mg/kg/day; in data set [6] (setting [25]), 20 mg/kg/day; in data set [7] (systemic / in life observation / clinical signs / respiration (rales) + systemic / pathology microscopic / nose / [other]) it was 0.0733 ppm; in [8] (setting [27]), 14 mg/kg/day; in data set [8] (setting [28]), 43 mg/kg/day. The no-observed-adverse-effect level (NOAEL) in data set [6] (setting [24]) was found to be 20 mg/kg/day; in [6] (setting [25]), 20 mg/kg/day; in [7] (setting [26]) it was 0.0733 ppm; in data set [8] (setting [27]), 45 mg/kg/day; in data set [8] (setting [28]), 43 mg/kg/day.
Regarding `COC(=O)c1ccc(C(=O)OC)cc1` [Dimethyl terephthalate], the LEL in data set [9] was found to be 500 mg/kg/day; in data set [10], 375 mg/kg/day; in data set [11] it was 375 mg/kg/day; in data set [12] it was 500 mg/kg/day; in data set [13] it was 4 mg/kg/day. Moreover, the LOAEL in [9] is over 500 mg/kg/day; in data set [10], over 3000 mg/kg/day; in data set [11], over 750 mg/kg/day; in data set [12], 500 mg/kg/day; in [13], over 4 mg/kg/day. For the same compound, the NEL was 250 mg/kg/day in data set [9]; 262 mg/kg/day in [10]; under 375 mg/kg/day in [11]; 250 mg/kg/day in [12]; 0.7 mg/kg/day in data set [13]. In addition, the NOAEL in data set [9] is at least 500 mg/kg/day; in data set [10], at least 3000 mg/kg/day; in [11] it was at least 750 mg/kg/day; in [12], 250 mg/kg/day; in data set [13], at least 4 mg/kg/day.
With `CCCCCCCCOC(=O)c1ccccc1C(=O)OCCCCCCCC` [Dioctyl phthalate], the NEL in data set [14] (systemic / organ weight / kidney / relative to body weight + systemic / organ weight / liver / relative to body weight) was determined as 3600 mg/kg/day. In [14] (setting [29]), the LEL was 7500 mg/kg/day, the LOAEL was over 7500 mg/kg/day and the NOAEL is at least 7500 mg/kg/day. Further, in [15], the LEL was determined as 350 mg/kg/day, the LOAEL was over 350 mg/kg/day, the NEL turned out to be 36.8 mg/kg/day and the NOAEL was at least 350 mg/kg/day.
As to `COCCOCCOC` [Bis(2-methoxyethyl) ether], the LOAEL in [16] (setting [30]) was over 175 mg/kg/day; in [16] (setting [31]), over 175 mg/kg/day; in data set [17] (setting [32]), over 1000 ppm; in data set [18] (setting [34]) it was over 400 ppm; in [18] (setting [35]), over 400 ppm; in [19] (setting [36]), over 500 mg/kg/day. The LOAEL in data set [19] (setting [37]) was over 500 mg/kg/day. In addition, the NEL in data set [16] (setting [30]) was 25 mg/kg/day; in data set [16] (setting [31]) it was 25 mg/kg/day; in data set [17] (setting [33]), under 100 ppm; in data set [18] (setting [34]) it was under 25 ppm; in data set [18] (setting [35]), 25 ppm; in data set [19] (setting [36]) it was 62.5 mg/kg/day. The NEL in data set [19] (setting [37]) amounted to 125 mg/kg/day. The NOAEL in data set [16] (setting [30]) was at least 175 mg/kg/day; in [16] (setting [31]), at least 175 mg/kg/day; in [17] (setting [32]), at least 1000 ppm; in [18] (setting [34]) it was at least 400 ppm; in data set [18] (setting [35]), at least 400 ppm; in [19] (setting [36]) it was at least 500 mg/kg/day. In addition, the NOAEL in [19] (setting [37]) was at least 500 mg/kg/day. Also, the LEL was found to be 50 mg/kg/day in data set [16] (group: developmental, developmental / developmental malformation / limb / [other]); 50 mg/kg/day in [16] (group: maternal, systemic / in life observation / body weight / body weight gain); 100 ppm in [17] (setting [33]); 25 ppm in data set [18] (setting [34]); 100 ppm in [18] (group: maternal, systemic / in life observation / food consumption / food consumption + systemic / organ weight / liver / absolute + systemic / organ weight…); 125 mg/kg/day in data set [19] (setting [24]). The LEL in [19] (group: maternal, reproductive / reproductive performance / postimplantation loss / postimplantation loss + systemic / in life observation / body weight / …) is 250 mg/kg/day.
